For assay [1], the system named is IL-23-stimulated phosphorylated STAT3 in peripheral blood mononuclear cells (PBMCs). Description: PBMC pSTAT3 Assay. Type of assay: cell-based. The conditions noted are these: PBMCs from healthy donors; 30 min preincubation with peptide; IL-23 5 ng/mL for 30 min; phospho-STAT3 by MSD. In outline:
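Phospho-STAT3 quantified by Meso Scale assay in lysates of PBMCs exposed to IL-23 (5 ng/mL, 30 min, 37 °C) after 30 min peptide pretreatment. Cells were cryopreserved donor PBMCs activated 4 days with anti-CD3 plus IL-1β (100 ng/mL) and starved ~4 h; IC50 reported.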

Another assay addresses T1, IL-23R (Homo sapiens, UniProt Q5VWK5).
T1 construct: HEK293 cells containing IL-23R, IL-12Rβ1 and a firefly luciferase reporter gene driven by a STAT-inducible promoter (Promega); host or cells: HEK293
T1 sequence (Q5VWK5 24-629): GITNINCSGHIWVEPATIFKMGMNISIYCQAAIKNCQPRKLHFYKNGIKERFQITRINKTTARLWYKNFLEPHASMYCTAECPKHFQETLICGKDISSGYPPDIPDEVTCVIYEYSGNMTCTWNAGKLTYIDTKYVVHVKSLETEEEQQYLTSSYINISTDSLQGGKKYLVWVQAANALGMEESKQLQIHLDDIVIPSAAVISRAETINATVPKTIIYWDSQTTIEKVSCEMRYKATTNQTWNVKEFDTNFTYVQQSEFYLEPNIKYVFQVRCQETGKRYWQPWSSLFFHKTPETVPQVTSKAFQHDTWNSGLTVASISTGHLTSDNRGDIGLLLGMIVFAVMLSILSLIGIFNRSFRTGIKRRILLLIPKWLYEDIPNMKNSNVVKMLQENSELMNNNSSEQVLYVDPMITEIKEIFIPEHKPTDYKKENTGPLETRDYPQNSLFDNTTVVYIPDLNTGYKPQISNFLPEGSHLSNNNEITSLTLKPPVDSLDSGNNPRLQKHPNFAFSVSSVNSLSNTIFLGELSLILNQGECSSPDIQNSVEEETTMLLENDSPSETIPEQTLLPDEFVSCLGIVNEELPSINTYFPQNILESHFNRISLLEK
Description: IL23R Reporter Assay. Type of assay: cell-based. The conditions noted are these: HEK293 cells containing IL-23R, IL-12Rβ1 and STAT-inducible firefly luciferase reporter; 10 ng/mL IL-23 (EC90); 5 h. A digest of the protocol: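 IC50 values were fitted with a 4-parameter Hill equation to luciferase signal, scaled between IL-23-only wells (0% inhibition) and 30 μM reference inhibitor (100%). The readout was a STAT-inducible reporter in IL-23R/IL-12Rβ1 HEK293 cells, stimulated with added 10 ng/mL IL-23 (EC90) for 5 h at 37° C and developed with BioGlo.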
On the technique in general: Reporter assays use an easily measured gene product as a stand-in for the process of interest.

pIC50: −log10 of the molar value. *1 amine or outer side, *2 acyl side, *3 side chain or, on linkers, in order; H or OH if unused. Where a SMILES comes first, the peptide text is derived from it. Bridges are numbered along the chain shown (N, C = ends). Roman numbers before positions name the chains, in order. Side-chain parts run from the residue outwards. [ ]: non-standard residue; d: D form. The star is where a group is joined. ξ: configuration not given here. X38 = O=C(O)CCCCCCCCCCCCCCCCC(=O)N[C@@H](CCC(=O)NCCOCCOCC(=O)NCCOCCCCC(=O)*)C(=O)O; X19 = CC(C)(S[*:2])[C@H](N[*:3])C(=O)C[C@@H](Cc1ccc(OCCN)cc1)C(=O)[*:1]; NH(CH2CH2O)2CH2CH2NMe3+ = C[N+](C)(C)CCOCCOCCN*; Trp(7-Me) = Cc1cccc2c(C[C@H](N)C(=O)O)c[nH]c12; C18 diacid = O=C(O)CCCCCCCCCCCCCCCCC(=O)*; γGlu = O=C(O)[C@H](CCC(=O)[*:2])N[*:1]; 2Nal = N[C@@H](Cc1ccc2ccccc2c1)C(=O)O; AEF = NCCOc1ccc(C[C@H](N)C(=O)O)cc1; 3Pal = N[C@@H](Cc1cccnc1)C(=O)O; Lys(Me) = CNCCCC[C@H](N)C(=O)O; Pen = CC(C)(S)[C@H](N)C(=O)O; Thp = NC1(C(=O)O)CCOCC1; X1 = C[N+](C)(C)CCCCC*; ξN = NC(=O)CC(N)C(=O)O; AEEA = NCCOCCOCC(=O)O; ξK = NCCCCC(N)C(=O)O; Sar = CNCC(=O)O

The term pIC50 denotes −log10 of the IC50, conventionally taken in molar units. The low end stands for a high IC50, the high end for a low IC50. As to `CC(=O)NCCCC[C@@H]1NC(=O)[C@H](Cc2c[nH]c3c(C)cccc23)NC(=O)[C@H]([C@@H](C)O)NC(=O)[C@H](CC(N)=O)NC(=O)[C@@H](NC(=O)[C@@H](CCCCNC(=O)COCCOCCNC(=O)COCCOCCNC(=O)CC[C@H](NC(=O)CCCCCCCCCCCCCCCCC(=O)O)C(=O)O)NC(C)=O)C(C)(C)SSC(C)(C)[C@@H](C(=O)N[C@@H](Cc2ccc(OCCN)cc2)C(=O)N[C@@H](Cc2ccc3ccccc3c2)C(=O)NC2(C(=O)N[C@@H](CCC(=O)O)C(=O)N[C@@H](CC(N)=O)C(=O)N[C@@H](Cc3cccnc3)C(=O)N(C)CC(N)=O)CCOCC2)NC1=O` [compound 58, MeCO-k(PEG2PEG2gEC18OH)-Pen(3)-N-T-7MeW-K(Ac)-Pen(3)-AEF-2Nal-THP-E-N-3Pya-Sar-CONH2] (Ac-[dK]([AEEA-AEEA-γGlu-C18 diacid])[Pen]NT[Trp(7-Me)]K(Ac)[Pen][AEF][2Nal][Thp]EN[3Pal][Sar]-NH2; disulfide 2-7), the negative logarithm of the IC50 (pIC50) was more than 9.30 in assay [1] and 6.30 to 7.30 against IL-23R.

Turning to `CC(=O)N[C@H](CCCNC(=N)N)C(=O)N[C@@H]1C(=O)N[C@@H](CC(N)=O)C(=O)N[C@@H]([C@@H](C)O)C(=O)N[C@@H](Cc2c[nH]c3c(C)cccc23)C(=O)NC(CCCCNC(=O)COCCOCCNC(=O)COCCOCCNC(=O)CC[C@H](NC(=O)CCCCCCCCCCCCCCCCC(=O)O)C(=O)O)C(=O)N[C@H](C(=O)N[C@@H](Cc2ccc(OCCN)cc2)C(=O)N[C@@H](Cc2ccc3ccccc3c2)C(=O)NC2(C(=O)N[C@@H](CCC(=O)O)C(=O)N[C@@H](CC(N)=O)C(=O)N[C@@H](Cc3cccnc3)C(=O)N(C)CC(N)=O)CCOCC2)C(C)(C)SSC1(C)C` (stereo partly drawn) [compound 59, MeCO-r-Pen(3)-N-T-7MeW-K(PEG2PEG2gEC18OH)-Pen(3)-AEF-2Nal-THP-E-N-3Pya-Sar-CONH2] (Ac-[dR][Pen]NT[Trp(7-Me)][ξK]([AEEA-AEEA-γGlu-C18 diacid])[Pen][AEF][2Nal][Thp]EN[3Pal][Sar]-NH2; disulfide 2-7), the figures for the pIC50 (in assay [1]; against IL-23R) were more than 9.30 and 6.30 to 7.30, respectively.

Regarding `CC(=O)NCCCC[C@@H]1NC(=O)[C@H](Cc2c[nH]c3c(C)cccc23)NC(=O)[C@H]([C@@H](C)O)NC(=O)[C@H](CC(N)=O)NC(=O)[C@@H](NC(=O)[C@@H](CCCNC(=N)N)NC(=O)COCCOCCNC(=O)COCCOCCNC(=O)CC[C@H](NC(=O)CCCCCCCCCCCCCCCCC(=O)O)C(=O)O)C(C)(C)SSC(C)(C)[C@@H](C(=O)N[C@@H](Cc2ccc(OCCN)cc2)C(=O)N[C@@H](Cc2ccc3ccccc3c2)C(=O)NC2(C(=O)N[C@@H](CCC(=O)O)C(=O)N[C@@H](CC(N)=O)C(=O)N[C@@H](Cc3cccnc3)C(=O)N(C)CC(N)=O)CCOCC2)NC1=O` [compound 60, HOC18gEPEG2PEG2CO-r-Pen(3)-N-T-7MeW-K(Ac)-Pen(3)-AEF-2Nal-THP-E-N-3Pya-Sar-CONH2] ({C18 diacid-γGlu-AEEA-AEEA}-[dR][Pen]NT[Trp(7-Me)]K(Ac)[Pen][AEF][2Nal][Thp]EN[3Pal][Sar]-NH2; disulfide 2-7), the pIC50 in assay [1] was more than 9.30; against IL-23R it was more than 7.30.

On to `CC(=O)NCCCC[C@@H]1NC(=O)[C@H](Cc2c[nH]c3c(C)cccc23)NC(=O)[C@H]([C@@H](C)O)NC(=O)[C@H](CC(N)=O)NC(=O)[C@@H](NC(=O)COCCOCCNC(=O)COCCOCCNC(=O)CC[C@H](NC(=O)CCCCCCCCCCCCCCCCC(=O)O)C(=O)O)C(C)(C)SSC(C)(C)[C@@H](C(=O)N[C@@H](Cc2ccc(OCCN)cc2)C(=O)N[C@@H](Cc2ccc3ccccc3c2)C(=O)NC2(C(=O)N[C@@H](CCC(=O)O)C(=O)N[C@@H](CC(N)=O)C(=O)N[C@@H](Cc3cccnc3)C(=O)N(C)CC(N)=O)CCOCC2)NC1=O` [compound 61, HOC18gEPEG2PEG2CO-Pen(3)-N-T-7MeW-K(Ac)-Pen(3)-AEF-2Nal-THP-E-N-3Pya-Sar-CONH2], for which the pIC50 was more than 9.30 in assay [1] and more than 7.30 against IL-23R.

For the compound `CC(=O)NCCCC[C@@H]1NC(=O)[C@H](Cc2c[nH]c3c(C)cccc23)NC(=O)[C@H]([C@@H](C)O)NC(=O)[C@H](CC(N)=O)NC(=O)[C@@H](NC(=O)[C@H](CCCCNC(=O)COCCOCCNC(=O)COCCOCCNC(=O)CC[C@H](NC(=O)CCCCCCCCCCCCCCCCC(=O)O)C(=O)O)NC(C)=O)C(C)(C)SSC(C)(C)[C@@H](C(=O)N[C@@H](Cc2ccc(OCCCCC[N+](C)(C)C)cc2)C(=O)N[C@@H](Cc2ccc3ccccc3c2)C(=O)NC2(C(=O)N[C@@H](CCCCNC(C)=O)C(=O)NC(CC(N)=O)C(=O)N[C@@H](Cc3cccnc3)C(=O)N(C)CC(N)=O)CCOCC2)NC1=O` (stereo partly drawn) [compound 62, MeCO-K(PEG2PEG2gEC18OH)-Pen(3)-N-T-7MeW-K(Ac)-Pen(3)-TMAPF-2Nal-THP-K(Ac)-3-Pya-Sar-CONH2] (Ac-K([AEEA-AEEA-γGlu-C18 diacid])[Pen]NT[Trp(7-Me)]K(Ac)[Pen]Y(X1)[2Nal][Thp]K(Ac)[ξN][3Pal][Sar]-NH2; disulfide 2-7), the pIC50 in assay [1] was more than 9.30; against IL-23R it was more than 7.30.

On to `CC(=O)N[C@@H](CCCCNC(=O)CCCCOCCNC(=O)COCCOCCNC(=O)CC[C@H](NC(=O)CCCCCCCCCCCCCCCCC(=O)O)C(=O)O)C(=O)N[C@@H]1C(=O)N[C@@H](CC(=O)N(C)C)C(=O)N[C@@H]([C@@H](C)O)C(=O)N[C@@H](Cc2c[nH]c3c(C)cccc23)C(=O)N[C@@H](CCCCN(C)C(C)=O)C(=O)N[C@H](C(=O)N[C@@H](Cc2ccc(OCCCCC[N+](C)(C)C)cc2)C(=O)N[C@@H](Cc2ccc3ccccc3c2)C(=O)NC2(C(=O)N[C@@H](CCCCN(C)C(C)=O)C(=O)N[C@@H](CC(N)=O)C(=O)N[C@@H](Cc3cccnc3)C(=O)N(C)CC(N)=O)CCOCC2)C(C)(C)SSC1(C)C` [compound 63, MeCO-K(PEG2PEG2gEC18OH)-Pen(3)-N(N(Me)2)-T-7MeW-K(NMeAc)-Pen(3)-TMAPF-2Nal-THP-K(NMeAc)-N-3Pya-Sar-CONH2] (Ac-K(X38)[Pen]D(NMe2)T[Trp(7-Me)][Lys(Me)](Ac)[Pen]Y(X1)[2Nal][Thp][Lys(Me)](Ac)N[3Pal][Sar]-NH2; disulfide 2-7), for which the pIC50 is not above 8.30 in assay [1] and not above 6.30 against IL-23R.

As to `CC(=O)NCCCC[C@@H]1NC(=O)[C@H](Cc2c[nH]c3c(C)cccc23)NC(=O)[C@H]([C@@H](C)O)NC(=O)[C@H](CC(N)=O)NC(=O)[C@@H](NC(C)=O)C(C)(C)SSC(C)(C)[C@@H](C(=O)C[C@@H](Cc2ccc(OCCN)cc2)C(=O)N[C@@H](Cc2ccc3ccccc3c2)C(=O)NC2(C(=O)N[C@@H](CCCCNC(=O)COCCOCCNC(=O)COCCOCCNC(=O)CC[C@H](NC(=O)CCCCCCCCCCCCCCCCC(=O)O)C(=O)O)C(=O)N[C@@H](CC(N)=O)C(=O)N[C@@H](Cc3cccnc3)C(=O)N(C)CC(=O)NCCOCCOCC[N+](C)(C)C)CCOCC2)NC1=O` [compound 64, MeCO-Pen(3)-N-T-7MeW-K(Ac)-Pen(3)-AEF-2Nal-THP-K(PEG2PEG2gEC18OH)-N-3Pya-Sar-CONH(PEG3a)] (I: [2Nal][Thp]K([AEEA-AEEA-γGlu-C18 diacid])N[3Pal][Sar]-{NH(CH2CH2O)2CH2CH2NMe3+} / II: Ac-[Pen]NT[Trp(7-Me)]K(Ac); linker I:N-II:1-II:C via X19), the pIC50 in assay [1] was 8.30 to 9.30; on IL-23R, not above 6.30.

In the case of `CC(=O)NCCCC[C@@H]1NC(=O)[C@H](Cc2c[nH]c3c(C)cccc23)NC(=O)[C@H]([C@@H](C)O)NC(=O)[C@H](CCCCNC(=O)COCCOCCNC(=O)COCCOCCNC(=O)CC[C@H](NC(=O)CCCCCCCCCCCCCCCCC(=O)O)C(=O)O)NC(=O)[C@@H](NC(=O)[C@@H](CCCNC(=N)N)NC(C)=O)C(C)(C)SSC(C)(C)[C@@H](C(=O)N[C@@H](Cc2ccc(OCCN)cc2)C(=O)N[C@@H](Cc2ccc3ccccc3c2)C(=O)NC2(C(=O)N[C@@H](CCC(=O)O)C(=O)N[C@@H](CC(N)=O)C(=O)N[C@@H](Cc3cccnc3)C(=O)N(C)CC(=O)NCCOCCOCC[N+](C)(C)C)CCOCC2)NC1=O` [compound 66, MeCO-r-Pen(3)-K(PEG2PEG2gEC18OH)-T-7MeW-K(Ac)-Pen(3)-AEF-2Nal-THP-E-N-3Pya-Sar-CONH(PEG3a)] (Ac-[dR][Pen]K([AEEA-AEEA-γGlu-C18 diacid])T[Trp(7-Me)]K(Ac)[Pen][AEF][2Nal][Thp]EN[3Pal][Sar]-{NH(CH2CH2O)2CH2CH2NMe3+}; disulfide 2-7), the figures for the pIC50 (in assay [1]; against IL-23R) were 8.30 to 9.30 and not above 6.30, respectively.

The values above are taken from patent US20260250320A1, “LIPIDATED PEPTIDE INHIBITORS OF INTERLEUKIN-23 RECEPTOR” (Janssen Pharmaceutica NV, priority 2023, published 2026).
